# “Also recorded” adds a separate entry of the source.
# Legend:
# [1] = target: T1, CYP2C19 (Homo sapiens, UniProt P33261); experiment: Drug-drug interaction study: multiple-dose LNF on PK of single-dose omeprazole; assay type: in vivo; parameters: single-dose omeprazole, a sensitive CYP2C19 substrate; endogenous in cells; host or cells: study subjects in vivo; settings: for CYP2C19 inhibition in vivo (classification): lonafarnib 75 mg twice daily, omeprazole probe
# Procedure: (§1) This study was conducted as an open-label, drug-drug interaction (DDI) study, a food-effect study with LNF alone, and a food-effect study with LNF+ritonavir (RTV). This study assessed the effects of multiple-dose LNF (75 mg twice daily×5 days) on the PK of single dose omeprazole (1×40-mg capsule) relative to omeprazole alone in.
# [2] = tested on: CYP3A
# [3] = Safety and tolerability in loperamide interaction study
# [4] = tested on: CYP3A; experiment: Drug-drug interaction study: multiple-dose lonafarnib on pharmacokinetics of single-dose midazolam; settings: human, in vivo, 100 mg
# Excerpt: (§2) An open-label, single-center, two-period, single-sequence, multi-drug-drug interaction study to evaluate the effects of multiple-dose lonafarnib on the pharmacokinetics of single-dose midazolam, a sensitive cytochrome p450-3a substrate.
# (§3) Given the profound increase, sensitive substrates of CYP3A should be contraindicated with lonafarnib.
# [5] = tested on: cytochrome P450 CYP3A; experiment: as above
# Excerpt: as §2, §3
# [6] = Multiple-dose lonafarnib PK (100 mg twice daily) in loperamide study; assay type: in vivo, human
# [7] = Food-effect evaluation of single-dose LNF; assay type: in vivo, human
# Excerpt: To evaluate the effect of a high-fat/high-calorie standard breakfast on the single-dose PK of LNF relative to a fasted state in healthy subjects (Group 2).
# To evaluate the effect of a low-fat/low-calorie breakfast on the single-dose PK of LNF relative to a fasted state in healthy subjects (Group 2).
# The effect of food (high-fat/high-calorie standard breakfast and low-fat/low-calorie breakfast) on the single-dose PK of LNF relative to the single-dose PK of LNF when administered under fasted conditions was evaluated.
# • Period 1: Oral dose of LNF (75-mg capsule×1) on Day 1 (AM) under fed conditions (high-fat/high-calorie breakfast) • Period 2: Oral dose of LNF (75-mg capsule×1) on Day 4 (AM) under fed conditions (low-fat/low-calorie breakfast) • Period 3: Oral dose of LNF (75-mg capsule×1) on Day 7 (AM) under fasted conditions
# [8] = tested on: CYP3A; experiment: Co-administration of lonafarnib with ketoconazole, a strong CYP3A inhibitor; assay type: in vivo, human; settings: co-administered with ketoconazole 200 mg twice daily
# [9] = Renal clearance and renal impairment study of lonafarnib; assay type: in vivo, human
# Excerpt: Lonafarnib is renally cleared <1% and no meaningful differences would be expected in subjects with renal impairment. […] Thus, lonafarnib is […].
# [10] = tested on: CYP3A; experiment: In vitro and in vivo CYP inhibition studies (CYP3A)
# Excerpt: The following medicines are contraindicated when used with lonafarnib and unless otherwise noted, the contraindication is based on the potential for lonafarnib to inhibit metabolism of the co-administered medicinal product, resulting in increased exposure to the co-administered medicinal product and risk of clinically significant adverse effects.
# (§4) Concomitant administration of lonafarnib with sensitive CYP3A or CYP2C19 substrates and strong or moderate CYP3A4 inhibitors or inducers, including herbal supplements can increase exposure of the co-administered medicinal product or lonafarnib resulting in risk of clinically significant adverse events or decrease exposure of lonafarnib, which may impact efficacy. Medicinal products that are sensitive CYP3A or CYP2C19 substrates, strong or moderate CYP3A inhibitors, or strong or moderate CYP3A inducers should be discontinued. If treatment cannot safety be discontinued or an alternative drug is not available, lonafarnib should be stopped during the course of treatment unless the benefit outweighs the possible risks.
# [11] = target: T1, CYP2C19; experiment: In vitro and in vivo CYP inhibition studies (CYP2C19)
# Excerpt: as §4
# [12] = target: CYP3A4 (Homo sapiens, UniProt P08684); experiment: Metabolism of lonafarnib
# Excerpt: Lonafarnib has not been studied in subjects with hepatic impairment.
# [13] = in vivo
# Procedure: as §1
# Other sensitive CYP2C19 substrates should be monitored during concomitant administration with LNF. […] Extent of exposure was 6,200 ng·h/mL and the T1/2 was 5.57 hours. Trough LNF concentrations increased from Day 7 to Day 9 (AM). By Day 10 trough levels stabilized, indicating steady-state LNF levels were achieved over 5 days of consecutive dosing. […] There were no deaths, SAEs, or other significant AEs. All AEs were Grade 1 or 2.
# [14] = target: P-gp (Homo sapiens, UniProt P08183); settings: in vivo
# [15] = lonafarnib 75 mg twice daily co-administered
# [16] = single-dose omeprazole with multiple-dose LNF
# [17] = with multiple-dose LNF vs alone
# [18] = co-administered with lonafarnib vs midazolam alone
# T1 sequence (P33261 whole entry): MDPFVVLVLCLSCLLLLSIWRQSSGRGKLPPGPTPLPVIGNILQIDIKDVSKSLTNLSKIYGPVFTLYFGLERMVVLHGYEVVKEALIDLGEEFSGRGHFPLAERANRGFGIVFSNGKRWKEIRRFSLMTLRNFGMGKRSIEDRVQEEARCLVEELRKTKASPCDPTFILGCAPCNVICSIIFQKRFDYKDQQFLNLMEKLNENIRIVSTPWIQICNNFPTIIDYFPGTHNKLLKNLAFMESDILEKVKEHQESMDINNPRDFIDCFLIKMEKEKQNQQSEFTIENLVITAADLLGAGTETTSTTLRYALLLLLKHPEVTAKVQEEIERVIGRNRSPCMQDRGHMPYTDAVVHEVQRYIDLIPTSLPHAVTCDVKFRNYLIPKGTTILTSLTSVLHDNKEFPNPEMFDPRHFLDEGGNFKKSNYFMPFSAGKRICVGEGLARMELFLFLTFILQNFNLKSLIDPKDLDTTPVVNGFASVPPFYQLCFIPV
# Chain of CYP3A4 (P08684 whole entry): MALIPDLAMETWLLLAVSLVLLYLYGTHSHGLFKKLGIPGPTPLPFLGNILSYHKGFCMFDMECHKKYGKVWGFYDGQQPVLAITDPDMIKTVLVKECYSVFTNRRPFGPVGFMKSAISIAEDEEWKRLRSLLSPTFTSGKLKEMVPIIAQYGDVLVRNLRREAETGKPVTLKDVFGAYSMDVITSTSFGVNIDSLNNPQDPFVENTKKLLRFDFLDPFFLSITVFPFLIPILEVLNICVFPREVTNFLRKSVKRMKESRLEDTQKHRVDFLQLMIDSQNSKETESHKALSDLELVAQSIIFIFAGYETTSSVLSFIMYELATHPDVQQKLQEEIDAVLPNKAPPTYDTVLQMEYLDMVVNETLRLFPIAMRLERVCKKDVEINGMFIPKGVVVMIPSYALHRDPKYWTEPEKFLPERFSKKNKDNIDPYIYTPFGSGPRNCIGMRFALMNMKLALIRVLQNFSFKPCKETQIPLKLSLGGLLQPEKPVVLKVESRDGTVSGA
# Chain of P-gp (P08183 whole entry): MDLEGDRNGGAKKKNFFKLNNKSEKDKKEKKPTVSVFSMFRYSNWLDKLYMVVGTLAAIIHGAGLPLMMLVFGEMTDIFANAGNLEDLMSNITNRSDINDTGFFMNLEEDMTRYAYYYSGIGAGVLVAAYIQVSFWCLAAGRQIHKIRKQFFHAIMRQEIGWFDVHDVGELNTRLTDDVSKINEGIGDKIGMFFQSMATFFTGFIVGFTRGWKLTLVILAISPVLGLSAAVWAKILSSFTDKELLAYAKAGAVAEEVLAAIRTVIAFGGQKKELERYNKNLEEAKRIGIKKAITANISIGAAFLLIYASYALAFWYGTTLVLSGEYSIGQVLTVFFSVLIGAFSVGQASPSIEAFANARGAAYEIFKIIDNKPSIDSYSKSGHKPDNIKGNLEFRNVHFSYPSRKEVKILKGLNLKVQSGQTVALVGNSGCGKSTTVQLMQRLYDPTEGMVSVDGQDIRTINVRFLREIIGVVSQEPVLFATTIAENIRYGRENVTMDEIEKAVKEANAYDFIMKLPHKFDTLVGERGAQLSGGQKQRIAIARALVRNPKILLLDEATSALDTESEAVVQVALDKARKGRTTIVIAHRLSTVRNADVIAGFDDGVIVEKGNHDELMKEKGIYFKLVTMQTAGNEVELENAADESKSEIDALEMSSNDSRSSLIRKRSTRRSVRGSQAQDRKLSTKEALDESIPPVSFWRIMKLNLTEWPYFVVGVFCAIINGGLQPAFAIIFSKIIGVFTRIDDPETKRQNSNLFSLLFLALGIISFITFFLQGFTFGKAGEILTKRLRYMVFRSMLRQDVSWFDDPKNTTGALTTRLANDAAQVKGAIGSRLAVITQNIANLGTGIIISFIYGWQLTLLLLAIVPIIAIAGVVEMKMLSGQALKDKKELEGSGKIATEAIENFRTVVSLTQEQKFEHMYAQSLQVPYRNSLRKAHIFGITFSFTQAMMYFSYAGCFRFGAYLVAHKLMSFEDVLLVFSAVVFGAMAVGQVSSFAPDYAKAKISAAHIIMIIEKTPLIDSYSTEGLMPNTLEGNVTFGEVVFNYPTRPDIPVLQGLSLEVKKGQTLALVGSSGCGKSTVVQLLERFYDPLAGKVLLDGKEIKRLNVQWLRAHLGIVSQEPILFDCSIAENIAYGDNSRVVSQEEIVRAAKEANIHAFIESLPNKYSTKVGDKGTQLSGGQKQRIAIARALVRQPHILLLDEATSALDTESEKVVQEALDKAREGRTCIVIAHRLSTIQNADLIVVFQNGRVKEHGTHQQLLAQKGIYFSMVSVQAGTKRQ
smiles,measurement,setting,value
COc1ccc2[nH]c([S+]([O-])Cc3ncc(C)c(OC)c3C)nc2c1 (stereo not shown) [omeprazole],change in omeprazole CL/F,[1]; coadministration with LNF,decreased
same,change in omeprazole Kel,[1]; coadministration with LNF,decreased
same,change in omeprazole T1/2,[1]; coadministration with LNF,increased
same,omeprazole AUC increase,[1]; [15],approximately 1.6 fold
same,omeprazole Cmax increase,[1]; [15],approximately 1.3 fold
same,omeprazole Cmax increase,[1]; single-dose omeprazole 40 mg with multiple-dose LNF 75 mg twice daily 5 days,44%
same,omeprazole AUC0-t and AUC0-inf increase,[1]; [16],approximately 2 fold
same,omeprazole Tmax with vs without LNF,[1]; [16],approximately the same time
same,omeprazole AUC0-inf geometric mean ratio (CI),[1]; [17],"1.600 (1.32, 1.94)"
same,omeprazole AUC0-t geometric mean ratio (CI),[1]; [17],"1.602 (1.34, 1.91)"
same,omeprazole Cmax geometric mean ratio (CI),[1]; [17],"1.275 (1.01, 1.61)"
CN(C)C(=O)C(CCN1CCC(O)(c2ccc(Cl)cc2)CC1)(c1ccccc1)c1ccccc1 [loperamide],increase of loperamide exposures (upper limit),[2]; coadministration of lonafarnib with loperamide,up to 4.6 fold
same,loperamide Cmax increase,[2]; single-dose loperamide 2 mg after lonafarnib 100 mg twice daily 5 days vs loperamide alone,~3 fold
same,loperamide Kel compared with loperamide alone,[2]; with multiple-dose lonafarnib,similar
same,tolerability,"[3]; healthy subjects, lonafarnib 100 mg twice daily and loperamide 2 mg",generally tolerated lonafarnib and loperamide well
same,GI adverse events vs lonafarnib alone,[3]; loperamide coadministered with lonafarnib,fewer GI adverse events
Cc1ncc2n1-c1ccc(Cl)cc1C(c1ccccc1F)=NC2 [midazolam],Tmax,[4],0.5 h
same,midazolam AUC increase,[5]; [18],approximately 7 fold
same,midazolam Cmax increase,[5]; [18],approximately 3 fold
same,"change in midazolam Cmax, AUC0-t and AUC0-inf",[5]; single-dose midazolam with multiple-dose lonafarnib,increased statistically significantly
NC(=O)N1CCC(CC(=O)N2CCC([C@H]3c4ncc(Br)cc4CCc4cc(Cl)cc(Br)c43)CC2)CC1 [lonafarnib],Cmax,"[6]; human, in vivo, steady state",964 ng/mL
same,half-life,"[6]; human, in vivo, steady state, read-out: lonafarnib T1/2 (converted)",4.22 h
same,lonafarnib extent of exposure,[6]; steady state,"6,940 ng·h/mL"
same,study day by which steady state was achieved,[6]; trough lonafarnib concentrations,≤ 8 days
same,LNF CL/F higher than fasted state,"[7]; single 75 mg dose, 2 fed states vs fasted",33-35%
same,decrease of LNF exposure (AUC0-t and AUC0-inf),"[7]; single 75 mg dose, fed states vs fasted",21-29%
same,LNF Cmax decrease relative to fasted state,"[7]; single 75 mg dose, high-fat/high-calorie breakfast",55%
same,LNF Cmax decrease relative to fasted state,"[7]; single 75 mg dose, low-fat/low-calorie breakfast",25%
same,LNF Tmax relative to fasted state,[7]; single dose with high-fat/high-calorie or low-fat/low-calorie meal,delayed
same,lonafarnib AUC increase,[8],approximately 5 fold
same,lonafarnib Cmax increase,[8],approximately 3.6 fold
same,fraction renally cleared,[9]; in vivo,< 1%
same,lonafarnib exposure in renal impairment,[9]; subjects with severe renal impairment,exposures increase
same,CYP3A inhibition (classification),[10],potent CYP3A time-dependent and mechanism based inhibitor
same,CYP2C19 inhibition (classification),[11],moderate CYP2C19 inhibitor
same,route of metabolism,[12],extensively metabolised via the cytochrome P450 enzyme system in the liver; also recorded: metabolized predominantly via CYP3A4 enzyme
same,adverse event incidence,[13],More subjects experienced AEs taking LNF
same,P-gp inhibition (classification),[14],weak P-gp inhibitor
same,CYP2C19 inhibition in vivo (classification),[1],moderate CYP2C19 inhibitor
same,CYP2C19 inhibition in vivo (classification),[1]; listed as LNF,direct/reversible inhibition of CYP2C19 in a moderate magnitude
